{"source": "ChEMBL document CHEMBL5226284", "about": "“Small Molecule Inhibitors Targeting Biosynthesis of Ceramide, the Central Hub of the Sphingolipid Network” (J Med Chem, 2021)", "key": {"[1]": {"assay": "Inhibition of Bacillus cereus nSMase"}, "[2]": {"assay": "Inhibition of rat liver microsome Sphingosine N-acyltransferase assessed as inhibition of [3H]sphingosine to [3H]ceramide conversion incubated for 2 hrs", "type": "microsomes"}, "[3]": {"target": "Sphingomyelin phosphodiesterase (Homo sapiens, UniProt P17405)", "sequence (P17405 whole entry)": "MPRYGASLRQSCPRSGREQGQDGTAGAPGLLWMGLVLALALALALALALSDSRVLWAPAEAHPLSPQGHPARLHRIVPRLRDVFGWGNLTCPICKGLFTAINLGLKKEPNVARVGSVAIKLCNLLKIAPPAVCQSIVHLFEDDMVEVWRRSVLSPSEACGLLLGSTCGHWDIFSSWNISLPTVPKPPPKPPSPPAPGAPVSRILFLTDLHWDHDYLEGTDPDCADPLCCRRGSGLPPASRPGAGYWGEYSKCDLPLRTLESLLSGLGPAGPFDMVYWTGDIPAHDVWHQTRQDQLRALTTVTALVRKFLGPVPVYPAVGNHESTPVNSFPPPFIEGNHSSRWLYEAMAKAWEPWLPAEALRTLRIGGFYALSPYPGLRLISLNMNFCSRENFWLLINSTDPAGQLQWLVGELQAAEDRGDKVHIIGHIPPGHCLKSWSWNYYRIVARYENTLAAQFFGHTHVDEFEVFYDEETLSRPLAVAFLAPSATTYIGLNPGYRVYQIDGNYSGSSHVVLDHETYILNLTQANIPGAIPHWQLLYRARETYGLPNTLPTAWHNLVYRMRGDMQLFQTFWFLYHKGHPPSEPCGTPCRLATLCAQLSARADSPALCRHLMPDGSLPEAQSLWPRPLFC", "assay": "Inhibition of recombinant human aSMase assessed as inhibition constant"}, "[4]": {"target": "Sphingomyelin phosphodiesterase (Homo sapiens) (UniProt P17405)", "sequence (P17405 whole entry)": "as above", "assay": "Inhibition of recombinant human aSMase at 5 uM relative to control"}, "[5]": {"assay": "Inhibition of rat brain aSMase using HMU-PC as substrate incubated for 3 hrs by fluorescence based analysis", "type": "tissue-based"}, "[6]": {"target": "T1, Sphingomyelin phosphodiesterase 2 (Rattus norvegicus, UniProt Q9ET64)", "T1 sequence (Q9ET64 whole entry)": "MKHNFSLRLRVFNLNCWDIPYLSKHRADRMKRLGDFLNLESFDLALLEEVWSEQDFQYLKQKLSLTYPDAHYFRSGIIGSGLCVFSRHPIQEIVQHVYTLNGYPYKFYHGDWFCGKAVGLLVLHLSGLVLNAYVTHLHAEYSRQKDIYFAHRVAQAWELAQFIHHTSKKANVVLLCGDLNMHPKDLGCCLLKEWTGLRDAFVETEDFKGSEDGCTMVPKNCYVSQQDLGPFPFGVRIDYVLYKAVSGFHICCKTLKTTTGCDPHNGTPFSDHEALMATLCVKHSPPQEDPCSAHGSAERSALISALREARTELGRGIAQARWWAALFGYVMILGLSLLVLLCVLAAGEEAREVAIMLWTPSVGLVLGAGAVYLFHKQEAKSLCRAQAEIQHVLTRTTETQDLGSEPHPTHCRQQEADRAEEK", "assay": "Inhibition of rat brain nSMase", "type": "tissue-based"}, "[7]": {"assay": "Inhibition of bovine brain microsomes nSMase", "parameters": "species or system Bos taurus, Microsome"}, "[8]": {"assay": "Non-competitive inhibition of bovine brain microsomes nSMase assessed as inhibition constant", "parameters": "species or system Bos taurus, Microsome"}, "Ceramide synthase 2 [9]": {"target": "T2, Ceramide synthase 2 (Homo sapiens, UniProt Q96G23)", "T2 sequence (Q96G23 whole entry)": "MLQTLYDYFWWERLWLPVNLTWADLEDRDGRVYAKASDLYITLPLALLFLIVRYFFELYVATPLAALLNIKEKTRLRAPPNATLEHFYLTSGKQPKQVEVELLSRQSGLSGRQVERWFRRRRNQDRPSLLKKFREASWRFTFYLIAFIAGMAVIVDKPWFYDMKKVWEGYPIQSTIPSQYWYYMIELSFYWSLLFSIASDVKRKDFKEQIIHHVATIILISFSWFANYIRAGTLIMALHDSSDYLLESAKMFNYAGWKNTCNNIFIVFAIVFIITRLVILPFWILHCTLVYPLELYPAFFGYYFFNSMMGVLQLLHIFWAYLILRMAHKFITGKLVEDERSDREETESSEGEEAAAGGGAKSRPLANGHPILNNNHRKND", "assay": "Inhibition of human CerS2"}, "Ceramide synthase 2 [10]": {"target": "Ceramide synthase 2 (Mus musculus, UniProt Q924Z4)", "sequence (Q924Z4 whole entry)": "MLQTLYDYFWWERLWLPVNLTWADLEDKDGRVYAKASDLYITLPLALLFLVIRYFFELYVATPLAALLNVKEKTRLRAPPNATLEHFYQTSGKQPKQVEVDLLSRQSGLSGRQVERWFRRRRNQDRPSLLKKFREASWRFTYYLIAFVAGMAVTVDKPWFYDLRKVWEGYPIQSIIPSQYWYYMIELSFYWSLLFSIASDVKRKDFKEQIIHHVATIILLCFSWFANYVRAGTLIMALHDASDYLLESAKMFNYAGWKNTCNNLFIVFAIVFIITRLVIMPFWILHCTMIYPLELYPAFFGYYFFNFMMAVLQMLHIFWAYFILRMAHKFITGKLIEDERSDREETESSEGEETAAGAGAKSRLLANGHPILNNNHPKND", "assay": "Inhibition of mouse CerS2"}, "Ceramide synthase 4": {"target": "Ceramide synthase 4 (Homo sapiens, UniProt Q9HA82)", "sequence (Q9HA82 whole entry)": "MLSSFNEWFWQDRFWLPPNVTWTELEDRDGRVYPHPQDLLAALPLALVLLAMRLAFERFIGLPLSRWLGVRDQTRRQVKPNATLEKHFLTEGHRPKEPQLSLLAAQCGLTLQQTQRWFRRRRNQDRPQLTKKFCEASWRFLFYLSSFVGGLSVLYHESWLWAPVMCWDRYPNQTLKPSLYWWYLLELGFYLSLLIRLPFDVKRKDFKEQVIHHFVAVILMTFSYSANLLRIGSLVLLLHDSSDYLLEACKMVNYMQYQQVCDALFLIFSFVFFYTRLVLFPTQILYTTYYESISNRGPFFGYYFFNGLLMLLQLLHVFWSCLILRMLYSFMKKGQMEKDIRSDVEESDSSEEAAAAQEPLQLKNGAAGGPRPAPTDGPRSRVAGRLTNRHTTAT", "assay": "Inhibition of human CerS4"}, "Ceramide synthase 5": {"target": "Ceramide synthase 5 (Mus musculus, UniProt Q9D6K9)", "sequence (Q9D6K9 whole entry)": "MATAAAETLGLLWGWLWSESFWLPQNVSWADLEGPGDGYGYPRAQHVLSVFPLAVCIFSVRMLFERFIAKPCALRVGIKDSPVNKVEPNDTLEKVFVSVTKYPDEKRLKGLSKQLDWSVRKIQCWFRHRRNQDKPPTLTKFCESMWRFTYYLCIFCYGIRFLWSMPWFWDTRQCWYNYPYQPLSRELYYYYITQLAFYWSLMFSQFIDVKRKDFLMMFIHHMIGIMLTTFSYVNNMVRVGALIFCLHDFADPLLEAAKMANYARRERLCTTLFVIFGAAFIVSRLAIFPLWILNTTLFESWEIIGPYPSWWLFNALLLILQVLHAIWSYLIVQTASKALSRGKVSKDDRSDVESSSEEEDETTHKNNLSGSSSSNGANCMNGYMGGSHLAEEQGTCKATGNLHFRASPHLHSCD", "assay": "Inhibition of mouse CerS5"}, "Ceramide synthase 6": {"target": "Ceramide synthase 6 (Homo sapiens, UniProt Q6ZMG9)", "sequence (Q6ZMG9 whole entry)": "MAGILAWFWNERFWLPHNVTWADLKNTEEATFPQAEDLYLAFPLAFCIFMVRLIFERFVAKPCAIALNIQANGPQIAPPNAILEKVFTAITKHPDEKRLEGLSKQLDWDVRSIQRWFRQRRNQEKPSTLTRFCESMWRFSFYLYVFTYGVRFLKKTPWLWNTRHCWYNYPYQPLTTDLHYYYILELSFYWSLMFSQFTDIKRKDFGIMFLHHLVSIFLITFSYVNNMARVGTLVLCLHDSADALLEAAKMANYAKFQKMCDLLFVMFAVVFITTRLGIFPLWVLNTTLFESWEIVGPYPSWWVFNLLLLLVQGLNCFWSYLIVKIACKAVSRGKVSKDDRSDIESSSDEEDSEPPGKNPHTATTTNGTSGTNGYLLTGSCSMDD", "assay": "Inhibition of human CerS6"}, "[11]": {"assay": "Inhibition of rat plasma secretory SMase", "type": "cell-free"}, "[12]": {"assay": "Mixed type inhibition of human recombinant glucocerebrosidase at pH 6.7"}, "[13]": {"assay": "Mixed type inhibition of human recombinant glucocerebrosidase at pH 5.6"}, "[14]": {"assay": "Mixed type inhibition of human recombinant glucocerebrosidase at pH 4.3"}, "[15]": {"target": "T3, Sphingolipid delta(4)-desaturase DES1 (Rattus norvegicus, UniProt Q5XIF5)", "T3 sequence (Q5XIF5 whole entry)": "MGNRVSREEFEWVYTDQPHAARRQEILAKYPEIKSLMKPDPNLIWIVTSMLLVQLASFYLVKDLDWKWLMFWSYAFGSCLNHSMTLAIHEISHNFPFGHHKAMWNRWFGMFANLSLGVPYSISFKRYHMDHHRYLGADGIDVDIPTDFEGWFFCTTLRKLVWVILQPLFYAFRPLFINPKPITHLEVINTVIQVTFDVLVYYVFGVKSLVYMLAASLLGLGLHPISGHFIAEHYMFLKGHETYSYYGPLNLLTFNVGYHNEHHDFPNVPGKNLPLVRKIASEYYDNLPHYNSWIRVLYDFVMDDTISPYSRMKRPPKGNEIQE", "assay": "Inhibition of rat liver microsome DES1 assessed as inhibition constant incubated for 20 mins in presence of NADH by liquid scintillation counter method", "type": "microsomes"}, "[16]": {"target": "T3, Sphingolipid delta(4)-desaturase DES1", "assay": "Inhibition of rat liver microsome DES1 incubated for 20 min in presence of NADH by liquid scintillation counter method", "type": "microsomes"}, "[17]": {"target": "T4, Sphingolipid delta(4)-desaturase DES1 (Homo sapiens, UniProt O15121)", "T4 sequence (O15121 whole entry)": "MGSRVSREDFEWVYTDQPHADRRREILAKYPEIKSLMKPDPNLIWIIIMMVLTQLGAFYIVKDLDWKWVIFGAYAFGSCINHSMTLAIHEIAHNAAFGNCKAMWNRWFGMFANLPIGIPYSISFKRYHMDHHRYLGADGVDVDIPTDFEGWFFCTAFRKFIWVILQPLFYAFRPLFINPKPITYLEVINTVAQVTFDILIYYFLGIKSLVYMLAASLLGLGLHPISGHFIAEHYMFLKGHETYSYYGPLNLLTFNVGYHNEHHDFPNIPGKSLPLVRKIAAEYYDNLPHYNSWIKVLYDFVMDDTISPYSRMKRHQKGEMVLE", "assay": "Inhibition of DES1 (unknown origin)"}, "[18]": {"target": "T4, Sphingolipid delta(4)-desaturase DES1", "assay": "Inhibition of DES1 in human HGC-27 cell lysates", "type": "subcellular"}, "[19]": {"target": "T4, Sphingolipid delta(4)-desaturase DES1", "assay": "Binding affinity to DES1 in human HGC-27 cell lysates assessed as inhibition constant", "type": "subcellular"}, "[20]": {"target": "T3, Sphingolipid delta(4)-desaturase DES1", "assay": "Inhibition of rat liver microsome DES1 using N-octanoylsphinganine as substrate incubated for 30 mins", "type": "microsomes"}, "Ceramide synthase 2 [21]": {"target": "T2, Ceramide synthase 2", "assay": "Inhibition of CerS2 in HPAC cells using DHSph as substrate", "type": "cell-based"}, "Ceramide synthase 2 [22]": {"target": "T2, Ceramide synthase 2", "assay": "Competitive inhibition of CerS2 in HPAC cells using DHSph as substrate by LC/MS/MS analysis", "type": "cell-based"}, "[23]": {"target": "T3, Sphingolipid delta(4)-desaturase DES1", "assay": "Inhibition of rat liver microsome DES1 incubated for 1 hr fluorescence based analysis", "type": "microsomes"}, "[24]": {"target": "T4, Sphingolipid delta(4)-desaturase DES1", "assay": "Noncompetitive inhibition of DES1 in human HGC-27 cell lysates assessed as inhibition constant", "type": "subcellular"}, "Acetylcholinesterase": {"target": "Acetylcholinesterase (Homo sapiens, UniProt P22303)", "sequence (P22303 whole entry)": "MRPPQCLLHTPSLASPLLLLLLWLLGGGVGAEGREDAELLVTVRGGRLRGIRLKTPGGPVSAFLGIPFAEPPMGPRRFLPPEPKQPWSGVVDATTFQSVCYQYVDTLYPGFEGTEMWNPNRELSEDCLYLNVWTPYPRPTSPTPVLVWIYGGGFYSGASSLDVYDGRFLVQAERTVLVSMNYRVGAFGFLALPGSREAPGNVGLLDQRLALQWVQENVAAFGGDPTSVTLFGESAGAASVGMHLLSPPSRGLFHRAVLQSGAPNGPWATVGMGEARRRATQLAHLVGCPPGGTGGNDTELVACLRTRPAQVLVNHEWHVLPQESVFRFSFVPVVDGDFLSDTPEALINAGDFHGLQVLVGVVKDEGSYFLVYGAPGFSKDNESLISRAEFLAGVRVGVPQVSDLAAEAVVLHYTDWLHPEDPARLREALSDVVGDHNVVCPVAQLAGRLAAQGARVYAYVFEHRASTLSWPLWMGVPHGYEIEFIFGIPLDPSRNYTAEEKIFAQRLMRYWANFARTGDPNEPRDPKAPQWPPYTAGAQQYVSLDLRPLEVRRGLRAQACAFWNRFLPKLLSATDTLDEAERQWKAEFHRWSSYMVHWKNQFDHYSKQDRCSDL", "assay": "Inhibition of AChe (unknown origin)"}, "[25]": {"target": "Sphingomyelinase C (Bacillus cereus) (UniProt P11889)", "sequence (P11889 whole entry)": "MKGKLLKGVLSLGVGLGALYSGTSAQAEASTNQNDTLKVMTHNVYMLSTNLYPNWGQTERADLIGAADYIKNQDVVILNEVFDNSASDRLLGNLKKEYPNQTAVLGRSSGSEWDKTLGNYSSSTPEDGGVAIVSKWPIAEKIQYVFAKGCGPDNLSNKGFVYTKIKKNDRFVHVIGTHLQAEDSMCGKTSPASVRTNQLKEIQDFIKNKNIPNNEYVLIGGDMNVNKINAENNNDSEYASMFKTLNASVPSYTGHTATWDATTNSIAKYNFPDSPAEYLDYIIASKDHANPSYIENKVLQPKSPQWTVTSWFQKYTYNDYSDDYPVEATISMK", "assay": "Inhibition of Bacillus cereus SMaseC at 100 uM relative to control"}, "[26]": {"target": "T1, Sphingomyelin phosphodiesterase 2", "assay": "Inhibition of rat brain microsomes nSMase assessed as inhibition constant", "parameters": "species or system Microsome"}, "[27]": {"assay": "Competitive inhibition of rat brain aSMase assessed as inhibition constant", "type": "tissue-based"}}, "data": [{"smiles": "O=c1[nH]c(=S)[nH]c(-c2ccccc2)c1Cc1c(O)ccc2ccccc12", "note": "[CAMBINOL]", "values": [{"measurement": "IC50", "setting": "[1]", "result": 5, "unit": "µM"}]}, {"smiles": "CCCC[C@@H](C)[C@@H](OC(=O)C[C@@H](CC(=O)O)C(=O)O)[C@H](C[C@@H](C)C[C@H](O)CCCC[C@@H](O)C[C@H](O)[C@H](C)N)OC(=O)C[C@@H](CC(=O)O)C(=O)O", "values": [{"measurement": "IC50", "setting": "[2]", "result": 100, "unit": "nM"}]}, {"smiles": "CCCCCCCC(=O)OC[C@H](COP(=O)(O)O[C@@H]1[C@H](O)[C@H](OP(=O)(O)O)[C@@H](O)[C@H](OP(=O)(O)O)[C@H]1O)OC(=O)CCCCCCC", "values": [{"measurement": "Ki", "setting": "[3]", "result": 530, "unit": "nM"}, {"measurement": "inhibition", "setting": "[4]", "result": "> 90", "unit": "%"}, {"measurement": "IC50", "setting": "[5]", "result": 930, "unit": "nM"}]}, {"smiles": "O=C(/C=C/c1ccc(/C=C/C(=O)Nc2ccc(C3=NCCN3)cc2)cc1)Nc1ccc(C2=NCCN2)cc1", "values": [{"measurement": "IC50", "setting": "[6]", "result": 1000, "unit": "nM"}]}, {"smiles": "CCCCCCCCCCCCCCCC(=O)N[C@H](CC(F)(F)P(=O)(O)O)[C@@H](O)c1ccccc1", "values": [{"measurement": "IC50", "setting": "[7]", "result": 3.3, "unit": "µM"}, {"measurement": "Ki", "setting": "[8]", "result": 1600, "unit": "nM"}]}, {"smiles": "C[C@@](N)(CO)CCc1ccc(OCc2ccc(Cl)c(Cl)c2)cc1", "values": [{"measurement": "IC50", "setting": "Ceramide synthase 2 [9]", "result": 7, "unit": "µM"}, {"measurement": "IC50", "setting": "Ceramide synthase 2 [10]", "result": 7, "unit": "µM"}, {"measurement": "IC50", "setting": "Ceramide synthase 4", "result": 7, "unit": "µM"}, {"measurement": "IC50", "setting": "Ceramide synthase 5", "result": 7, "unit": "µM"}, {"measurement": "IC50", "setting": "Ceramide synthase 6", "result": 7, "unit": "µM"}]}, {"smiles": "COc1cc([C@H]2Oc3cc(O)cc(O)c3C[C@H]2OC(=O)c2cc(O)c(O)c(O)c2)cc(O)c1O", "values": [{"measurement": "IC50", "setting": "[11]", "result": 1700, "unit": "nM"}]}, {"smiles": "Nc1c(Br)cc(Br)cc1CN[C@H]1CC[C@H](O)CC1", "note": "[AMBROXOL]", "values": [{"measurement": "IC50", "setting": "[12]", "result": 8.1, "unit": "µM"}, {"measurement": "IC50", "setting": "[13]", "result": 31, "unit": "µM"}, {"measurement": "IC50", "setting": "[14]", "result": "> 1.1", "unit": "mM"}]}, {"smiles": "CC1=C(/C=C/C(C)=C/C=C/C(C)=C/C(=O)Nc2ccc(O)cc2)C(C)(C)CCC1", "note": "[FENRETINIDE]", "values": [{"measurement": "Ki", "setting": "[15]", "result": 8.28, "unit": "µM"}, {"measurement": "IC50", "setting": "[16]", "result": 2320, "unit": "nM"}, {"measurement": "IC50", "setting": "[17]", "result": 100, "unit": "nM"}]}, {"smiles": "CCCCCCCCCCCCCC1=C([C@@H](O)[C@H](CO)NC(=O)CCCCCCC)C1", "values": [{"measurement": "IC50", "setting": "[18]", "result": 52, "unit": "nM"}, {"measurement": "Ki", "setting": "[19]", "result": 22, "unit": "nM"}, {"measurement": "Ki", "setting": "[20]", "result": 6, "unit": "µM"}]}, {"smiles": "CCCCCCCCc1ccc(CCC(N)(CO)CO)cc1", "note": "[FINGOLIMOD]", "values": [{"measurement": "IC50", "setting": "Ceramide synthase 2 [21]", "result": 6.4, "unit": "µM"}, {"measurement": "Ki", "setting": "Ceramide synthase 2 [22]", "result": 2150, "unit": "nM"}]}, {"smiles": "CCCCCCCCCCCCCSC[C@@H](O)[C@H](CO)NC(=O)CCCCCCC", "values": [{"measurement": "IC50", "setting": "[23]", "result": 8.2, "unit": "µM"}]}, {"smiles": "Oc1ccc(Nc2nc(-c3ccc(Cl)cc3)cs2)cc1", "values": [{"measurement": "Ki", "setting": "[24]", "result": 300, "unit": "nM"}]}, {"smiles": "CN1c2ccc(OC(=O)Nc3ccncc3)cc2[C@]2(C)CCO[C@H]12", "values": [{"measurement": "IC50", "setting": "Acetylcholinesterase", "result": 7, "unit": "µM"}]}, {"smiles": "CCCCCCCCCCCCC/C=C/[C@@H](OCc1cccc(-c2ccccn2)n1)[C@H](CO)NC(=O)CCCCC", "values": [{"measurement": "inhibition", "setting": "[25]", "result": 20, "unit": "%"}]}, {"smiles": "COc1cc(O)c(C(=O)O)c(-c2cc(O)c(O)cc2C)c1", "note": "[ALTENUSIN]", "values": [{"measurement": "Ki", "setting": "[26]", "result": 20, "unit": "µM"}]}, {"smiles": "CCCCCCCCCCCCOS(=O)(=O)O[C@@H]1[C@H](O)[C@H](OP(=O)(O)O)[C@@H](O)[C@H](OP(=O)(O)O)[C@H]1O", "values": [{"measurement": "IC50", "setting": "[5]", "result": 900, "unit": "nM"}, {"measurement": "Ki", "setting": "[27]", "result": 420, "unit": "nM"}]}]}
